{"source": "patent US8008346B2", "about": "“Chemotherapeutic agents for inhibition of protein translation” (The Royal University for the Advancement of Learning/McGill …, priority 2006, dated 2011)", "key": {"4E-BP": {"test_system": "4E-BP", "assay": "Western blot of 4E-BP and S6K phosphorylation status in MEFs stimulated with insulin (± rapamycin)", "type": "cell-based, murine", "description": "(§1) FIG. 14. (A) Western blot analysis of 4E-BP and S6K phosphorylation status in MEFs (murine embryo fibroblasts) stimulated with insulin (±rapamycin). Antibodies to pan-4E-BP and eIF4E antibodies were used. The phosphorylation status of 4E-BP is evident by a shift to a slower mobility species (shift from α to γ species). […] (B) Clofoctol inhibits protein synthesis in cells. MEF cells were incubated for 45 minutes in the presence of increasing amounts of clofoctol in methionine-free culture media. S^35-methionine was then added to the cell culture and incubation continued for 15 minutes. The amount of S^35-methionine incorporated into newly synthesized proteins was detected by TCA precipitation of the cell lysate following by scintillation counting. Results are expressed relative to the incorporation in the presence of 0.5% DMSO."}, "MEF cells": {"test_system": "MEF cells", "assay": "S35-methionine incorporation (protein synthesis) in MEF cells", "type": "cell-based, murine", "conditions": "45 min + 15 min labeling, relative to 0.5% DMSO", "description": "as §1"}, "[1]": {"test_system": "Lymphomas derived from Eμ-myc, Eμ-myc×Tsc2(−/+), or Bcl2/Eμ-myc mice", "assay": "Growth/cytotoxicity in lymphoma cell lines in culture", "type": "cell-based", "from_the_text": "FIG. 15. Clofoctol Inhibits growth of tumor cell lines in culture. Lymphomas derived from Eμ-myc, Eμ-myc×Tsc2(−/+), or Bcl2/Eμ-myc mice were exposed to the indicated concentrations of Clofoctol and cytotoxicity monitored."}, "human tumor stem cell": {"test_system": "human tumor stem cell", "conditions": "in vitro; cited from earlier work"}, "HeLa cells [2]": {"test_system": "HeLa cells", "assay": "3H-uridine incorporation (RNA synthesis) in HeLa cells", "type": "cell-based", "conditions": "50 μM, 60 min, normalized to DMSO, positive control, data not shown", "description": "(§2) FIG. 4. Effect of hippuristanol on protein, RNA and DNA synthesis in cells. A. Relative rate of ^35S-methionine incorporation as a function of hippuristanol concentration in HeLa cells. Cells were exposed to the indicated concentration of compound for 50 min., followed by a 10 min. labeling period with ^35S-methionine in the presence of compound. The rate of protein synthesis (TCA precipitable cpm) obtained in the presence of compound was normalized to the rate obtained in the presence of DMSO (which was set at 1). The rate of protein synthesis in the control reactions (containing DMSO vehicle) averaged ˜700,000 cpm/10 min. labeling period. Results are shown for two experiments and the error of the mean is presented. The relative rate of ^35S-methionine incorporation in HeLa cells exposed to 10 μM anisomycin (positive control) for 60 min. was ˜0.02 (data not shown). B. Effect of hippuristanol on protein (gray circles), DNA (open squares), and RNA (solid squares) synthesis in HeLa cells. […] Gradients were analyzed by piercing the tube with a Brandel tube piercer, passing 60% sucrose through the bottom of the tube, and monitoring the absorbance of the material eluting from the tube using an ISCO UA-6 UV Detector."}, "HeLa cells [3]": {"test_system": "HeLa cells", "assay": "35S-methionine incorporation (protein synthesis) in HeLa cells", "type": "cell-based", "conditions": "HeLa cells, 10 μM, 60 min; normalized to DMSO (set at 1); positive control, data not shown", "description": "FIG. 4. Effect of hippuristanol on protein, RNA and DNA synthesis in cells. A. Relative rate of ^35S-methionine incorporation as a function of hippuristanol concentration in HeLa cells. Cells were exposed to the indicated concentration of compound for 50 min., followed by a 10 min. labeling period with ^35S-methionine in the presence of compound. The rate of protein synthesis (TCA precipitable cpm) obtained in the presence of compound was normalized to the rate obtained in the presence of DMSO (which was set at 1). The rate of protein synthesis in the control reactions (containing DMSO vehicle) averaged ˜700,000 cpm/10 min. labeling period. Results are shown for two experiments and the error of the mean is presented. The relative rate of ^35S-methionine incorporation in HeLa cells exposed to 10 μM anisomycin (positive control) for 60 min. was ˜0.02 (data not shown). B. Effect of hippuristanol on protein (gray circles), DNA (open squares), and RNA (solid squares) synthesis in HeLa cells. The rate of macromolecular synthesis (TCA precipitable cpm for a 10 min. labeling period) obtained in the presence of 1 μM hippuristanol was normalized to the rate obtained in the presence of DMSO and is plotted. The results are shown for two experiments and the error of the mean is presented. The rate of protein, RNA and DNA synthesis in the control reactions (containing DMSO vehicle) averaged ˜900,000 cpm/10 min, ˜16,000 cpm/10 min. and 7,000 cpm/10 min labeling, respectively. The relative rate of ^35S-methionine incorporation by HeLa cells exposed to 10 μM anisomycin for 60 min. (positive control for inhibition of protein synthesis) was 0.02 (data not shown). The relative rate of ^3H-uridine incorporation by HeLa cells exposed to 50 μM actinomycin (positive control for inhibition of RNA synthesis) for 60 min. was 0.01 (data not shown). C. […] Gradients were analyzed by piercing the tube with a Brandel tube piercer, passing 60% sucrose through the bottom of the tube, and monitoring the absorbance of the material eluting from the tube using an ISCO UA-6 UV Detector."}, "HeLa cell polyribosomes": {"test_system": "HeLa cell polyribosomes", "assay": "HeLa cell polyribosome profile on sucrose gradients", "type": "cell-based", "conditions": "10 uM, 20 min", "description": "as §2"}, "[4]": {"test_system": "Akt-driven Eμ-myc lymphomas", "assay": "Akt-driven Eμ-myc lymphoma model, combination with doxorubicin", "type": "in vivo, Mice", "conditions": "hippurin-1 5 mg/kg every day for 5 days, doxorubicin 10 mg/kg once on day 2 of 5", "description": "FIG. 13. Efficacy of hippurin-1 on Akt-driven Eμ-myc lymphomas when administered in combination with doxorubicin. Mice bearing Akt-driven Eμ-myc lymphomas where injected with either doxorubicin (10 mg/kg once on day 2 of 5), hippurin-1 alone (5 mg/kg every day for 5 days) or hippurin-1 and doxorubicin (hippurin-1: 5 mg/kg every day for 5 days, doxorubicin: 10 mg/kg once on day 2 of 5). Tumor size was monitored by (A) palpation (blinded study) and (B) blood smears on days 1, 3 and 5 during the treatment to assess the size of the lymphomas and the number of leukemic cells, respectively."}, "murine leukemia cells": {"test_system": "murine leukemia cells", "conditions": "also in a number of human tumor xenografts; cited from earlier work"}}, "note": "Numbered stars: 1 amine (or outer) side, 2 acyl side, 3 side chain; on linkers, the order of the positions; unused ones are H or OH. Bridge positions count the residues as written; N and C are the ends. Square brackets hold non-standard residues; d marks the D form. Peptide text beside a SMILES is read from it. I, II: the chains in the order shown. Actinocin(9to1) = Cc1c2oc3c(C)ccc(C(=O)[*:1])c3nc-2c(C(=O)[*:2])c(N)c1=O; NMeV = CN[C@H](C(=O)O)C(C)C; Sar = CNCC(=O)O", "data": [{"compound": "CC(C)(C)CC(C)(C)c1ccc(O)c(Cc2ccc(Cl)cc2Cl)c1", "note": "[Clofoctol]", "values": [{"measurement": "phosphorylation status of 4E-BP", "setting": "4E-BP; MEF cells, in the presence or absence of rapamycin", "result": "causes dephosphorylation of 4E-BP"}, {"measurement": "S6 phosphorylation in the presence of rapamycin", "setting": "4E-BP; MEFs, FIG. 14A lane 4 vs 3", "result": "antagonizes rapamycin's block of S6 phosphorylation"}, {"measurement": "protein synthesis in cells", "setting": "MEF cells", "result": "inhibits"}, {"measurement": "growth of tumor cell lines in culture", "setting": "[1]", "result": "Inhibits"}]}, {"compound": "CC[C@H](C)[C@H]1NC(=O)[C@@H](NC(=O)[C@@H](CC(C)C)N(C)C(=O)[C@@H]2CCCN2C(=O)C(C)O)[C@@H](C)OC(=O)[C@H](Cc2ccc(OC)cc2)N(C)C(=O)[C@@H]2CCCN2C(=O)[C@H](CC(C)C)NC(=O)[C@@H](C)C(=O)[C@H](C(C)C)OC(=O)C[C@@H]1O", "note": "(stereo partly shown) [Didemnin B]", "values": [{"measurement": "concentrations inhibiting cell growth", "setting": "human tumor stem cell", "result": "1 to 100", "unit": "nM"}]}, {"compound": "Cc1c2oc3c(C)ccc(C(=O)N[C@@H]4C(=O)N[C@H](C(C)C)C(=O)N5CCC[C@H]5C(=O)N(C)CC(=O)N(C)[C@@H](C(C)C)C(=O)O[C@@H]4C)c3nc-2c(C(=O)N[C@@H]2C(=O)N[C@H](C(C)C)C(=O)N3CCC[C@H]3C(=O)N(C)CC(=O)N(C)[C@@H](C(C)C)C(=O)O[C@@H]2C)c(N)c1=O", "note": "[actinomycin] (I: T[dV]P[Sar][NMeV] / II: T[dV]P[Sar][NMeV]; ester I:1-I:C, II:1-II:C; linker I:N-II:N via Actinocin(9to1))", "values": [{"measurement": "relative rate of 3H-uridine incorporation", "setting": "HeLa cells [2]", "result": 0.01}]}, {"compound": "COc1ccc(C[C@H]2NC[C@H](O)[C@H]2OC(C)=O)cc1", "note": "[anisomycin, reference compound]", "values": [{"measurement": "relative rate of 35S-methionine incorporation", "setting": "HeLa cells [3]", "result": "~0.02"}, {"measurement": "effect on HeLa cell polyribosomes", "setting": "HeLa cell polyribosomes", "result": "blocked elongation and caused an accumulation of ribosomes in polysomes"}]}, {"compound": "CC(=O)O[C@@H]1C[C@@]2(C)[C@@H](CC[C@@H]3[C@@H]2[C@@H](O)C[C@@]2(C)[C@H]3C[C@@H]3O[C@@]4(C[C@H](C)C(C)(C)O4)[C@](C)(O)[C@@H]32)C[C@@H]1O", "note": "[hippurin-1]", "values": [{"measurement": "adjuvant effect to doxorubicin in a mouse lymphoma model", "setting": "[4]", "result": "can act as adjuvant"}]}, {"compound": "dehydrodidemnin 6", "values": [{"measurement": "activity relative to didemnin B", "setting": "murine leukemia cells", "result": "ten times more active"}]}]}
